According to patent US20250170266A1 (ZYMEWORKS BC INC., priority 2022, published 2025):
Read-outs that look alike come from different tables or passages of the source.

How the values were obtained:
Type in all cases: cell-based
[1] = system: Human peripheral blood mononuclear cells (PBMCs); assay: Human PBMC Assay, cytokine release (HTRF); details: PBMC, 24 hours
Summary of the method: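 Cryopreserved human PBMCs, rested overnight with 10 ng/ml hIL3, then 300,000 cells/well treated 24 h at 37° C with compound (4-fold, 11-point titration from 15 μM) in RPMI+10% FBS. Supernatant hIL6, hTNFα and hIFNα measured by HTRF; growth medium as negative control.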

Mouse splenocytes = assay: Mouse Splenocyte Assay, cytokine release (HTRF); details: 24 hours, mIL6 in supernatant; for EC50: Splenocyte, read-out: Splenocyte IL6 EC50
Experimental: Mouse splenocytes were isolated from fresh mouse spleens. Briefly, spleens were harvested from female balb/c nude mice and transferred to a 70 μm cell strainer. The cell strainer was subsequently placed in a 6-well suspension culture plate containing 5 mL media (RPMI+10% FBS). The spleens were crushed against the cell strainer using the flat end of a 10 mL syringe plunger and the cell strainer was washed with 5 mL media. The cell strainer was discarded, and the cell suspension was washed in PBS. Red blood cells were removed using PharmaLyse (BD). The cell suspension was washed in media, resuspended in CryoStor® CS10 ([…]) and frozen. On assay day, mouse splenocytes were thawed in warm assay buffer (RPMI+10% FBS). Cells were spun down and resuspended in fresh assay buffer. 100,000 cells were added to each well of plates containing test compound. For test compound preparation, each compound was initially diluted to 1 mM in DMSO and further diluted in assay buffer. A 4-fold 11-point titration starting from 15 μM was performed. Cells were incubated with test compound at 37° C.+5% CO2 for 24 hours before supernatant was harvested. Murine IL6 (mIL6) and murine TNFα (mTNFα) were quantified in the supernatant using homogeneous time resolved fluorescence (Cisbio).
Each assay included a positive control compound (referred to herein as “benchmark,” see, e.g., TABLE 3 below, and taken from International Patent Publication No. WO2017/072662, structure shown below) and a negative control (growth medium). […] The structure of the benchmark compound from International Patent Publication No. WO 2017/072662 is as follows: […]

hTLR7 = biological target: T1, hTLR7 (Homo sapiens, UniProt Q9NYK1); assay: Reporter Gene Assay (RGA), HEK-Blue hTLR7 reporter cells, SEAP readout; details: overnight incubation, SEAP absorbance 620 nm
T1 construct: host or cells: HEK-Blue hTLR7 reporter cells (HEK293-derived, own knowledge)
T1 sequence (Q9NYK1 27-1049): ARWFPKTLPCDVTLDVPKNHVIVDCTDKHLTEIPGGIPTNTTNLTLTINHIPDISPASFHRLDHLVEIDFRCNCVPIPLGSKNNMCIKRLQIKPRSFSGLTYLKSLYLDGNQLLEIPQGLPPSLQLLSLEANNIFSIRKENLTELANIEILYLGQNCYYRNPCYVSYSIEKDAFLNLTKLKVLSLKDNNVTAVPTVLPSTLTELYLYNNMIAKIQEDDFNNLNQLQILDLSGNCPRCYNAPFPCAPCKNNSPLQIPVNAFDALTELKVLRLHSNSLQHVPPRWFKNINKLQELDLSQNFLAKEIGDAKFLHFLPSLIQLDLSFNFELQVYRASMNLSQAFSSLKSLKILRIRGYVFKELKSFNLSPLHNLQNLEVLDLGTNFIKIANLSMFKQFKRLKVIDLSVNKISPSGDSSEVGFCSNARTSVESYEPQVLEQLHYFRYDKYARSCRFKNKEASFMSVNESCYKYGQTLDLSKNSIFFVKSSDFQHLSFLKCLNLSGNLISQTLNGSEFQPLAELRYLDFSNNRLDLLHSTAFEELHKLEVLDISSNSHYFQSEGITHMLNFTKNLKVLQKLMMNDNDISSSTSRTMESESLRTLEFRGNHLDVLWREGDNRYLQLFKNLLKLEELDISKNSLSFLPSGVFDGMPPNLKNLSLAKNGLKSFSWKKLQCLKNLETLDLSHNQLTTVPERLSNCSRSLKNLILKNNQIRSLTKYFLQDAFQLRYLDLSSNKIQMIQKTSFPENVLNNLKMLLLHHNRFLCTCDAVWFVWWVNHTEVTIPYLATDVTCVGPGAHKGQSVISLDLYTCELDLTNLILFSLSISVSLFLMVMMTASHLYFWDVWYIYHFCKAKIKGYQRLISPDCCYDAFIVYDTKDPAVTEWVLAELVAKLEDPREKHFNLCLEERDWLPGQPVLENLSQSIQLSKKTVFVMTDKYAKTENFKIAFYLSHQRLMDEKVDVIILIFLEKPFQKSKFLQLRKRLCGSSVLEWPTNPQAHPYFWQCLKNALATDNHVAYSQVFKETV
Summary of the method: (§1)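 HEK-Blue reporter cells expressing human or mouse TLR7 (1.5×10^4 cells) were treated with an 11-point, 4-fold compound titration from 15 pM in HEK-Blue Detection medium. Incubation was overnight at 37° C with 5% CO2. Secreted embryonic alkaline phosphatase was read as absorbance at 620 nm.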

mTLR7 = biological target: T2, mTLR7 (Mus musculus, UniProt P58681); assay: Reporter Gene Assay (RGA), HEK-Blue mTLR7 reporter cells, SEAP readout; details: overnight incubation, SEAP absorbance 620 nm
T2 construct: host or cells: HEK-Blue mTLR7 reporter cells (HEK293-derived, own knowledge)
T2 sequence (P58681 27-1050): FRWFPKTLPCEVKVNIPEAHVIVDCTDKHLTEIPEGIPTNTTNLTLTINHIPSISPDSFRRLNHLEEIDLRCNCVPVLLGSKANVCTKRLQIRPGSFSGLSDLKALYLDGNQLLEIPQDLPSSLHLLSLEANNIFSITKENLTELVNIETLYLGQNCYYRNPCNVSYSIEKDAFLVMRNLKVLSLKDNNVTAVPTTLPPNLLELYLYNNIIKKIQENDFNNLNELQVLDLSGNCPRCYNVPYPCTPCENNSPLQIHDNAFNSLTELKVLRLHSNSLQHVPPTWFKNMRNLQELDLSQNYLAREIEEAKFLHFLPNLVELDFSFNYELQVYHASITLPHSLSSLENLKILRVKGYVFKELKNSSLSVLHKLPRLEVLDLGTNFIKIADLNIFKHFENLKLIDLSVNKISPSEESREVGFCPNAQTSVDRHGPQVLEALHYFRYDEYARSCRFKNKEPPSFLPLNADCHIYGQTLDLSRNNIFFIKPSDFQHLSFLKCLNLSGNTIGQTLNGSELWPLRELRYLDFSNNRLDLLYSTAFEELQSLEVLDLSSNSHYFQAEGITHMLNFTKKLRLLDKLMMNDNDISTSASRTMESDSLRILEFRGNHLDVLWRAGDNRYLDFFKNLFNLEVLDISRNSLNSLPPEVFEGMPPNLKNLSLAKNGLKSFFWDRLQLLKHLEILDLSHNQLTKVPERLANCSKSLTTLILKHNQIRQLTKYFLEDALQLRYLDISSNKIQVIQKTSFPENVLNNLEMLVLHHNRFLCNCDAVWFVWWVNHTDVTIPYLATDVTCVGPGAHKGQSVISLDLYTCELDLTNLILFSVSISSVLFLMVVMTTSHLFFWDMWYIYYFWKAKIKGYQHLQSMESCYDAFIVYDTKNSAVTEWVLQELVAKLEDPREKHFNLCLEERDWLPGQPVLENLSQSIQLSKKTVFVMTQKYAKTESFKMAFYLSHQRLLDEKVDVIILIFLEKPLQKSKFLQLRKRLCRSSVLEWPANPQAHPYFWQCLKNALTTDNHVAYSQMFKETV
Summary of the method: as §1

[2] = hIFNα in supernatant, EC50 values approximated and divided into groups, read-out: PBMC IFNa EC50
[3] = hIL6 in supernatant, read-out: PBMC IL6 EC50

SMILES	EC50 [1, 2]	EC50 [1, 3]	EC50 (Mouse splenocytes)	EC50 (hTLR7)	EC50 (mTLR7)	Splenocyte IL6 EC50 (nM) (Mouse splenocytes)
CCCCCNc1nc(N)c2nc(O)n(Cc3ccc(CN4CCC(N)CC4)cc3)c2n1 [Compound 188, 6-amino-9-(4-((4-aminopiperidin-1-yl)methyl)benzyl)-2-(pentylamino)-9H-purin-8-ol]	1 to 10 nM	19.6 nM	198 nM	351 nM	26.2 nM	–
CCOc1nc(N)c2nc(O)n(Cc3ccc(CNC4CCC4)cc3OC)c2n1 [Compound 108, 6-amino-9-(4-((cyclobutylamino)methyl)-2-methoxybenzyl)-2-ethoxy-9H-purin-8-ol]	< 0.1 nM	564 nM	71.9 nM	6 nM	5 nM	–
CCOc1nc(N)c2nc(O)n(Cc3ccc(CNCc4ccc(CN5CCOCC5)cc4)cc3OC)c2n1 [Compound 142, 6-amino-2-ethoxy-9-(2-methoxy-4-(((4-(morpholinomethyl)benzyl)amino)-methyl)benzyl)-9H-purin-8-ol]	< 0.1 nM	13.6 nM	9.9 nM	2.6 nM	14.6 nM	–
CCOc1nc(N)c2nc(O)n(Cc3ccc(CNCc4ccc(CNCc5ccccc5)cc4)cc3OC)c2n1 [Compound 147, 6-amino-9-(4-(((4-((benzylamino)methyl)benzyl)amino)methyl)-2-methoxy-benzyl)-2-ethoxy-9H-purin-8-ol]	< 0.1 nM	38.8 nM	13.2 nM	0.9 nM	16.9 nM	–
CCCCOc1nc(N)c2nc(O)n(Cc3ccc(CNC)cc3OC)c2n1 [Compound 163, 6-amino-2-butoxy-9-(2-methoxy-4-((methylamino)methyl)benzyl)-9H-purin-8-ol]	< 0.1 nM	–	2.9 nM	0.7 nM	3.3 nM	–
CCCCOc1nc(N)c2nc(O)n(Cc3ccc(CN)cc3OC)c2n1 [Compound 162, 6-amino-9-(4-(aminomethyl)-2-methoxybenzyl)-2-butoxy-9H-purin-8-ol]	1 to 10 nM	–	1.3 nM	1.7 nM	2.3 nM	–
CCCCOc1nc(N)c2nc(O)n(Cc3ccc(N4CCC5(CCNCC5)CC4)cc3OC)c2n1 [Compound 171, 6-amino-2-butoxy-9-(2-methoxy-4-(3,9-diazaspiro[5.5]undecan-3-yl)benzyl)-9H-purin-8-ol]	> 10 nM	1550 nM	8.9 nM	< 0.1 nM	1.1 nM	–
CCOc1nc(N)c2nc(O)n(Cc3ccc(CNCc4ccc(CN)cc4)cc3OC)c2n1 [Compound 105, 6-amino-9-(4-(((4-(aminomethyl)benzyl)amino)methyl)-2-methoxybenzyl)-2-ethoxy-9H-purin-8-ol]	< 0.1 nM	394 nM	26.2 nM	7 nM	2.4 nM	–
CCCCCNc1nc(N)c2nc(O)n(Cc3ccc(CNCCCCN)cc3)c2n1 [Compound 190, 6-amino-9-(4-(((4-aminobutyl)amino)methyl)benzyl)-2-(pentylamino)-9H-purin-8-ol]	1 to 10 nM	131 nM	106 nM	1420 nM	80.8 nM	–
CCOc1nc(N)c2nc(O)n(Cc3ccc(CN4CCNCC4)cc3)c2n1 [Compound 150, 6-amino-2-ethoxy-9-(4-(piperazin-1-ylmethyl)benzyl)-9H-purin-8-ol]	0.1 to 1 nM	322 nM	2130 nM	6.9 nM	83.8 nM	–
CCOc1nc(N)c2nc(O)n(Cc3ccc(CN4CCC(C5CCNCC5)CC4)cc3OC)c2n1 [Compound 138, 9-(4-([4,4′-bipiperidin]-1-ylmethyl)-2-methoxybenzyl)-6-amino-2-ethoxy-9H-purin-8-ol]	> 10 nM	130 nM	186 nM	17.2 nM	243 nM	–
CCOc1nc(N)c2nc(O)n(Cc3ccc(CNCCC(=O)N[C@@H](Cc4c[nH]cn4)C(=O)O)cc3OC)c2n1 [Compound 116, (3-((4-((6-amino-2-ethoxy-8-hydroxy-9H-purin-9-yl)methyl)-3-methoxybenzyl)-amino)-propanoyl)-L-histidine]	> 10 nM	3080 nM	2180 nM	184 nM	1020 nM	–
CCOc1nc(N)c2nc(O)n(Cc3ccc(CN4CCNCC4)nc3)c2n1 [Compound 192, 6-amino-2-ethoxy-9-((6-(piperazin-1-ylmethyl)pyridin-3-yl)methyl)-9H-purin-8-ol]	> 10 nM	202 nM	–	51.4 nM	681 nM	inactive
CCCCOc1nc(N)c2nc(O)n(Cc3ccc(CCCN4CCC(N)CC4)cc3OC)c2n1 [Compound 172, 6-amino-9-(4-(3-(4-aminopiperidin-1-yl)propyl)-2-methoxybenzyl)-2-butoxy-9H-purin-8-ol]	> 10 nM	–	2.1 nM	< 0.1 nM	< 0.1 nM	–
